# Results reported in ChEMBL document CHEMBL4392859, “Xylo-C-nucleosides with a pyrrolo[2,1-f][1,2,4]triazin-4-amine heterocyclic base: Synthesis and antiproliferative properties” (Bioorg Med Chem Lett, 2019).
# How the values were obtained:
# Type in all cases: functional, cell-based
# CAPAN-1 = assay: Antiproliferative activity against human Capan1 cells
# [1] = Antiproliferative activity against human HAP1 cells
# HCT-116 = assay: Antiproliferative activity against human HCT116 cells
# NCI-H460 = assay: Antiproliferative activity against human NCI-H460 cells
# [2] = Antiproliferative activity against human DND41 cells
# HL-60 = assay: Antiproliferative activity against human HL60 cells
# K562 = assay: Antiproliferative activity against human K562 cells
# Z-138 = assay: Antiproliferative activity against human Z138 cells
# [3] = Homo sapiens, CAPAN-1, read-out: IC50
# [4] = Homo sapiens, HAP1, read-out: IC50
# [5] = Homo sapiens, HCT-116, read-out: IC50
# [6] = Homo sapiens, NCI-H460, read-out: IC50
# [7] = Homo sapiens, DND41, read-out: IC50
# [8] = Homo sapiens, HL-60, read-out: IC50
# [9] = Homo sapiens, K562, read-out: IC50
# [10] = Homo sapiens, Z-138, read-out: IC50
IC50 (HCT-116; [5]) [nM],IC50 (NCI-H460; [6]) [nM],IC50 (HL-60; [8]) [nM],IC50 (K562; [9]) [nM],IC50 (HCT-116; hct-116),IC50 (NCI-H460; nci-h460),IC50 (HL-60; hl-60),IC50 (K562; k562),Compound,IC50 (CAPAN-1; [3]) [nM],"IC50 [1, 4] [nM]","IC50 [2, 7] [nM]",IC50 (Z-138; [10]) [nM],IC50 (CAPAN-1; capan-1),IC50 [1],IC50 [2],IC50 (Z-138; z-138)
4,7,47,16,,,,,CC(=O)O[C@@]12CO[C@@H]1C[C@H](O)[C@@]1(C)C(=O)[C@H](O)C3=C(C)[C@@H](OC(=O)[C@H](O)[C@@H](NC(=O)OC(C)(C)C)c4ccccc4)C[C@@](O)([C@@H](OC(=O)c4ccccc4)[C@H]21)C3(C)C [DOCETAXEL ANHYDROUS],19,18,14,9,,,,
,,,,Not Active,Not Active,Not Active,Not Active,N#C[C@@]1(c2ccc3c(N)ncnn23)O[C@H](CO)[C@H](O)[C@H]1O,,,,,Not Active,Not Active,Not Active,Not Active
8400,2000,1900,4300,,,,,Nc1ncnn2c([C@@H]3O[C@H](CO)[C@H](O)[C@H]3O)ccc12,2700,9300,2800,4000,,,,

Compound,IC50 (HCT-116; [5]) [nM],IC50 (NCI-H460; [6]) [nM],IC50 (HL-60; [8]) [nM],IC50 (K562; [9]) [nM],IC50 (HCT-116; hct-116),IC50 (NCI-H460; nci-h460),IC50 (HL-60; hl-60),IC50 (K562; k562),IC50 (CAPAN-1; [3]) [nM],"IC50 [1, 4] [nM]","IC50 [2, 7] [nM]",IC50 (Z-138; [10]) [nM],IC50 (CAPAN-1; capan-1),IC50 [1],IC50 [2],IC50 (Z-138; z-138)
CN[C@@H]1C[C@H]2O[C@@](C)([C@@H]1OC)n1c3ccccc3c3c4c(c5c6ccccc6n2c5c31)C(=O)NC4 [STAUROSPORINE],37,,19,83,,,,,48,,23,18,,,,
